Experimental data reported in patent US7241799B2, “Cannabimimetic indole derivatives” (University of Connecticut, priority 1999, dated 2007).
Where two headings read alike, the source gives them in different places.

Tests used:
CB1 receptor = molecular target: T1, CB1 receptor (Rattus norvegicus, UniProt P20272); assay: CB1 receptor binding, [3H] CP-55,940 displacement, rat forebrain membranes; details: for Ki: rat forebrain membranes, 0.8 nM [3H] CP-55,940, read-out: Kl CB1; for selectivity for the CB1 receptor: binding selectivity CB1 versus CB2, from the results in the TABLES
T1 construct: membranes were prepared from rat forebrain membranes; from tissue; host or cells: rat forebrain
T1 sequence (P20272 whole entry): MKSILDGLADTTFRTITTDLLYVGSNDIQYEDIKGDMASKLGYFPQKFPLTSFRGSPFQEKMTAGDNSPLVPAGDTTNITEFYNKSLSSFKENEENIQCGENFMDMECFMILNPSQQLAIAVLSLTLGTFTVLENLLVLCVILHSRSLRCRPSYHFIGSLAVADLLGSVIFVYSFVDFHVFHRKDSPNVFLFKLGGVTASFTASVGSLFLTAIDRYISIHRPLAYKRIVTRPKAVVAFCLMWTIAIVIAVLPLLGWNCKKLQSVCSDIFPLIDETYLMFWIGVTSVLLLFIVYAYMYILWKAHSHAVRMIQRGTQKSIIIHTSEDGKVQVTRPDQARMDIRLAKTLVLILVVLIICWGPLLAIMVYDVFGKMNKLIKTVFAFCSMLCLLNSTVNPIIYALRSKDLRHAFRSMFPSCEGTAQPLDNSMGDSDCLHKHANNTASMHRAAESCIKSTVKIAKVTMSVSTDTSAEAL
Description: (§1) The materials were tested for CB2 receptor binding affinity and for CB1 receptor affinity (to determine selectivity for the CB2 receptor). As used herein, “binding affinity” is represented by the IC50 value which is the concentration of an analog required to occupy the 50% of the total number (Bmax) of the receptors. The lower the IC50 value the higher the binding affinity.
For the CB1 receptor binding studies, membranes were prepared from rat forebrain membranes according to the procedure of P. R. Dodd et al, A Rapid Method for Preparing Synaptosomes: Comparison with Alternative Procedures, Brain Res., 107–118 (1981). The binding of the novel analogues to the CB1 cannabinoid receptor was assessed as described in W. A. Devane et al, Determination and Characterization of a Cannabinoid Receptor in a Rat Brain, Mol. Pharmacol., 34, 605–613 (1988) and A. Charalambous et al, 5′-azido Δ^8 THC: A Novel Photoaffinity Label for the Cannabinoid Receptor, J. Med. Chem., 35, 3076–3079 (1992) with the following changes. The above articles are incorporated by reference herein.
Membranes, previously frozen at −80° C., were thawed on ice. To the stirred suspension was added three volumes of TME (25 mM Tris-HCl buffer, 5 mM MgCl2 and 1 mM EDTA) at a pH 7.4. The suspension was incubated at 4° C. for 30 min. At the end of the incubation, the membranes were pelleted and washed three times with TME.
(§2) The treated membranes were subsequently used in the binding assay described below. Approximately 30 μg of membranes were incubated in silanized 96-well microtiter plate with TME containing 0.1% essentially fatty acid-free bovine serum albumin (BSA), 0.8 nM [^3H] CP-55,940, and various concentrations of test materials at […] for 1 hour. The samples were filtered using Packard Filtermate 196 and Whatman GF/C filterplates and washed with wash buffer (TME) containing 0.5% BSA. Radioactivity was detected using MicroScint 20 scintillation cocktail added directly to the dried filterplates, and the filterplates were counted using a Packard Instruments Top-Count. Nonspecific binding was assessed using 100 nM CP-55,940. Data collected from three independent experiments performed with duplicate determinations was normalized between 100% and 0% specific binding for [^3H] CP-55,940, determined using buffer and 100 nM CP-55,940. The normalized data was analyzed using a 4-parameter nonlinear logistic equation to yield IC50 values. Data from at least two independent experiments performed in duplicate was used to calculate IC50 values which were converted to Ki values using the assumptions of Cheng et al, Relationship Between the Inhibition Constant (Ki) and the concentration of Inhibitor which causes 50% Inhibition (IC50) of an Enzymatic Reaction, Biochem. Pharmacol., 22, 3099–3102, (1973), which is incorporated by reference herein.

CB2 receptor = molecular target: T2, CB2 receptor (Mus musculus, UniProt P47936); assay: CB2 receptor binding, [3H] CP-55,940 displacement, mouse spleen membranes; details: for Ki: mouse spleen membranes, [3H] CP-55,940, read-out: Kl CB2 (converted)
T2 construct: membranes were prepared from frozen mouse spleen; from tissue; host or cells: mouse spleen
T2 sequence (P47936 whole entry): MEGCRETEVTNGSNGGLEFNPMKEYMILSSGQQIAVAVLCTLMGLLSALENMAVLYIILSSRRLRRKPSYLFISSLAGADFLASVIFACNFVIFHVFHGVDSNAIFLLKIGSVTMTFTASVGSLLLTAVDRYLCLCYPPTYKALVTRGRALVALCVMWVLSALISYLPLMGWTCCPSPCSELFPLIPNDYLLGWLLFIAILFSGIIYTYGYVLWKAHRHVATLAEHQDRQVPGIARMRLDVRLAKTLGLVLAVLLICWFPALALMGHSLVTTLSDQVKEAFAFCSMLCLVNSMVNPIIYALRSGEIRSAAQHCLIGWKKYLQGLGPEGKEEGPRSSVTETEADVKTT
Description: as §1, §2
For the CB2 receptor binding studies, membranes were prepared from frozen mouse spleen essentially according to the procedure of P. R. Dodd et al, A Rapid Method for Preparing Synaptosomes: Comparison with Alternative Procedures, Brain Res., 226, 107–118 (1981) which is incorporated by reference herein. Silanized centrifuge tubes were used throughout to minimize receptor loss due to adsorption. The CB2 binding assay was conducted in the same manner as for the CB1 binding assay. The binding affinities (Ki) were also expressed in nanomoles (nM).

In the case of O=C(c1cccc2ccccc12)c1cn(CCCCCF)c2cc(I)ccc12 [Am1230], the Ki (CB1 receptor; TABLE 2) is reported as 1.1 nM and the Ki (CB2 receptor; TABLE 2) is reported as 2.4 nM.

Compound CCCCCn1cc(C(=O)c2cc(I)ccc2I)c2ccccc21 [AM1206] has a Ki (CB1 receptor; TABLE 2) of 105 nM and a Ki (CB2 receptor; TABLE 2) of 150 nM.

Work on Cc1c(C(=O)c2ccccc2)c2ccc(N=[N+]=[N-])cc2n1CC1CCCCN1C (racemic) [AM671] yielded a Ki (CB1 receptor; TABLE 1, racemic samples) of 155 nM and a Ki (CB2 receptor; TABLE 1, racemic samples) of 59.1 nM.

With O=C(c1cccc2ccccc12)c1cn(CCCCCO)c2cc(I)ccc12 [AM1238] the Ki (CB1 receptor; TABLE 2) was 3.1 nM and the Ki (CB2 receptor; TABLE 2) was 17.3 nM.

With Cc1ccc(S(=O)(=O)OCCCn2cc(C(=O)c3cccc4ccccc34)c3ccccc32)cc1 [AM1289] the Ki (CB1 receptor; TABLE 2) was 360 nM, the Ki (CB2 receptor; TABLE 2) was 78.6 nM and the “selectivity for the CB2 receptor” value (CB2 receptor; binding selectivity CB2 versus CB1, from the results in the TABLES) was “high selectivity for the CB2 receptor”.

In the case of CCCCCn1cc(C(=O)c2ccccc2I)c2ccccc21 [AM679], the Ki (CB1 receptor; TABLE 2) is reported as 13.5 nM and the Ki (CB2 receptor; TABLE 2) is reported as 49.5 nM.

CC(=O)OCCCCCn1cc(C(=O)c2cccc3ccccc23)c2ccc([N+](=O)[O-])cc21 [AM1233] was tested, and the Ki (CB1 receptor; TABLE 2) was 142 nM and the Ki (CB2 receptor; TABLE 2) was 154 nM.

Compound CN1CCCCC1Cn1cc(C(=O)c2ccc([N+](=O)[O-])c3ccccc23)c2ccccc21 (stereo not shown) [AM1299] has a Ki (CB1 receptor; TABLE 1, racemic samples) of 12.4 nM and a Ki (CB2 receptor; TABLE 1, racemic samples) of 13.5 nM.

O=C(c1cccc2ccccc12)c1cn(CCCCCI)c2ccccc12 [AM2203] gave a Ki (CB1 receptor; TABLE 2) of 7.8 nM and a Ki (CB2 receptor; TABLE 2) of 45.8 nM.

For O=C(c1cccc2ccccc12)c1cn(CCCI)c2ccccc12 [AM1292], the Ki (CB1 receptor; TABLE 2) was 3.1 nM and the Ki (CB2 receptor; TABLE 2) was 18.1 nM.

Cc1c(C(=O)c2cccc3ccccc23)c2ccc([N+](=O)[O-])cc2n1CC1CCCCN1C (stereo not shown) [AM1221] showed a Ki (CB1 receptor; TABLE 1, racemic samples) of 52.3 nM and a Ki (CB2 receptor; TABLE 1, racemic samples) of 0.28 nM.

For Cc1c(C(=O)c2ccccc2I)c2ccc(N=[N+]=[N-])cc2n1CC1CCCCN1C (racemic) [AM1215], the Ki (CB1 receptor; TABLE 1, racemic samples) was 40.7 nM and the Ki (CB2 receptor; TABLE 1, racemic samples) was 21.9 nM.

For CC(=O)OCCCn1cc(C(=O)c2cccc3ccccc23)c2ccccc21 [AM1284], the Ki (CB1 receptor; TABLE 2) was 127 nM and the Ki (CB2 receptor; TABLE 2) was 103 nM.

For CN1CCCCC1Cn1cc(C(=O)c2cccc3ccccc23)c2ccccc21 (stereo not shown) [AM1220], the Ki (CB1 receptor; TABLE 1, racemic samples) was 3.88 nM and the Ki (CB2 receptor; TABLE 1, racemic samples) was 73.4 nM.

CN1CCCCC1Cn1cc(C(=O)c2cccc3ccccc23)c2ccc([N+](=O)[O-])cc21 (racemic) [AM1218] showed a Ki (CB1 receptor; TABLE 1, racemic samples) of 11.2 nM and a Ki (CB2 receptor; TABLE 1, racemic samples) of 3.98 nM.

CN1CCCCC1Cn1cc(C(=O)c2cccc3ccccc23)c2ccc(N=[N+]=[N-])cc21 (racemic) [AM1224] showed a Ki (CB1 receptor; TABLE 1, racemic samples) of 20.2 nM and a Ki (CB2 receptor; TABLE 1, racemic samples) of 0.73 nM.

Work on Cc1c(C(=O)c2cccc3ccccc23)c2ccc(N)cc2n1CC1CCCCN1C (racemic) [AM1225] yielded a Ki (CB1 receptor; TABLE 1, racemic samples) of 440 nM and a Ki (CB2 receptor; TABLE 1, racemic samples) of 38.5 nM.

In the case of CC(=O)OCCCCCn1c(C)c(C(=O)c2ccccc2I)c2ccccc21 [AM689], the Ki (CB1 receptor; TABLE 2) is reported as 2280 nM and the Ki (CB2 receptor; TABLE 2) is reported as 1020 nM.

In the case of O=C(c1ccccc1I)c1cn(CCCCCN=C=S)c2ccccc12 [AM1201], the Ki (CB1 receptor; TABLE 2) is reported as 106 nM and the Ki (CB2 receptor; TABLE 2) is reported as 110 nM.

With CN1CCCCC1Cn1cc(C(=O)c2cc3ccc4cccc5ccc(c2)c3c45)c2ccccc21 (racemic) [AM1253] the Ki (CB1 receptor; TABLE 1, racemic samples) was 60.3 nM and the Ki (CB2 receptor; TABLE 1, racemic samples) was 126 nM.

CC(=O)OCCCCn1cc(C(=O)c2cccc3ccccc23)c2ccccc21 [AM1282] was tested, and the Ki (CB1 receptor; TABLE 2) was 133 nM and the Ki (CB2 receptor; TABLE 2) was 101 nM.

O=C(c1ccc([N+](=O)[O-])c2ccccc12)c1cn(CCCCI)c2ccccc12 [AM2210] was tested, and the Ki (CB1 receptor; TABLE 2) was 1.8 nM and the Ki (CB2 receptor; TABLE 2) was 11.3 nM.

In the case of O=C(c1cccc2ccccc12)c1cn(CCCCCF)c2ccccc12 [AM2201], the Ki (CB1 receptor; TABLE 2) is reported as 1 nM and the Ki (CB2 receptor; TABLE 2) is reported as 2.6 nM.

For Cc1c(C(=O)c2ccccc2)c2ccc(N=C=S)cc2n1CC1CCCCN1C (racemic) [AM684], the Ki (CB1 receptor; TABLE 1, racemic samples) was 181 nM and the Ki (CB2 receptor; TABLE 1, racemic samples) was 44.8 nM.

O=C(c1ccccc1I)c1cn(CCCCCF)c2ccccc12 [AM694] was tested, and the Ki (CB1 receptor; TABLE 2) was 0.08 nM, the “selectivity for the CB1 receptor” value (CB1 receptor) was “high selectivity for the CB1 receptor” and the Ki (CB2 receptor; TABLE 2) was 1.44 nM.

For O=C(c1cccc2ccccc12)c1cn(CCCCF)c2ccccc12 [AM1295], the Ki (CB1 receptor; TABLE 2) was 2.5 nM, the “selectivity for the CB1 receptor” value (CB1 receptor) was “high selectivity for the CB1 receptor” and the Ki (CB2 receptor; TABLE 2) was 30.7 nM.
